Measured values published in patent US11447533B2, “Antimicrobial and anticancer peptides and conjugates and compositions, methods, articles and kits relating thereto” (George Mason Research Foundation, Inc., priority 2018, dated 2022).

Key:
[1] = test system: Klebsiella pneumoniae (ATCC BAA-1705); assay: Antimicrobial efficacy against ESKAPE pathogens; assay type: cell-based; settings: mammalian serum
Method: (§1) Antimicrobial Studies. The phosphate buffers used for antimicrobial assays were supplemented with non-nitrogenous energy source, 0.1% (w/v) glucose. To conduct antimicrobial assays, bacterial strains were first suspended in respective buffers. E. coli (ATCC 25922) and B. cereus (ATCC 11778) were grown in MHB II up to OD600 nm˜1 and stored as frozen stock in 20% glycerol at −80° C. Occasionally they were thawed and enumerated by serial dilution and spreading on MHB II agar plates. The concentrations of the frozen stocks of E. coli and B. cereus strains were 1.0-1.1*10^8 CFU/mL with OD600 nm˜0.8. In case of other bacterial strains, they were grown on the days of experiment up to OD600 nm˜1-1.5 and then adjusted to OD600 nm˜0.8. The growth media of the drug-resistant bacterial strains were supplemented with few of the respective antibiotics against which they are resistant. 200 μL of the 0.8 OD600 nm culture were added to 10 mL of the respective buffer to obtain a suspension which was used to incubate with equal volumes of peptide solution in the same buffer.
(§2) Antimicrobial assays in different phosphate buffers and serum were conducted by adapting, with necessary modifications a fast high-throughput method based on Virtual Colony Count technique and later modified by incorporating the use of resazurin. At first serial dilution of a microbial strain in respective buffer was poured in the wells of 96 well polypropylene microplate and was then added with same volume of 2× MHB II supplemented with 80 μg/mL resazurin and incubated at 35° C. in a Gemini EM Microplate Reader (Molecular Devices) overnight with intermittent shaking. As the microbe grows it reduces non-fluorescent resazurin to fluorescent resorufin and the fluorescent intensity of each well were measured (excitation=570 nm, emission=590 nm) each 5 min for 15 hours. The time (t, min) to reach a certain fluorescence (RFU=20000 with respect to the starting fluorescence) was correlated with the initial bacterial concentration (in CFU/mL) in the particular well to obtain a calibration plot of the form: Log([Bacteria],CFU/mL)=b+m*t Equation 4: […]
(§3) To obtain antimicrobial efficacy of the peptides, 50 μL of serially diluted peptide in a buffer was incubated with 50 μL microbial suspension in the same buffer for 3 hours in black polypropylene 96 well plate. After incubation the wells were added with 100 μL of 2× MHB II supplemented with 80 μg/mL resazurin and then incubated with continuous fluorescence reading for overnight time period as described earlier. The surviving microbial population (CFU/mL) in each well were calculated by first finding the time to reach a fluorescence of RFU=20000 and the correlation (4) for the specific microbial strain and buffer. % Survival represents the proportion of viable cells in peptide treated cells relative to cells treated with the respective buffer alone. Equation 5: […]
(§4) Finally, the antimicrobial effectiveness of each peptide against the particular microbial strain in the specific buffer was determined by plotting % microbial survival as a function of the log of the concentration of the peptide and fitting the resulting data to a variable-slope sigmoidal regression model (equation 6). […]
(§5) ATRA1-R3W2-HYD, NA-CATH and PMB were evaluated for their effectiveness in mammalian serum conditions against pathogenic bacteria of both normal and drug-resistant strains. […]

Pseudomonas aeruginosa = assay: Antimicrobial efficacy against ESKAPE pathogens; assay type: cell-based
Method: as §1, §2, §3, §4, §5

[2] = test system: multi-drug resistant (MDR) Acinetobacter baumannii (ATCC BAA-1795); assay: Antimicrobial efficacy against ESKAPE pathogens; assay type: cell-based; settings: mammalian serum
Method: as §1, §2, §3, §4, §5

ESKAPE pathogens = assay: Antimicrobial efficacy against ESKAPE pathogens (all other than P. aeruginosa); assay type: cell-based; settings: mammalian serum; susceptible and drug-resistant strains
Method: FIG. 8 is a graph showing antimicrobial efficacies of ATRA1-R3W2-HYD (blue), NA-CATH (dark orange) and PMB (green) against selected members of ESKAPE (Enterococcus faecium, Staphylococcus aureus, Klebsiella pneumoniae, Acinetobacter baumannii, Pseudomonas aeruginosa, and Enterobacter) pathogens. Both susceptible and drug-resistant strains were used. All the bacteria, except Pseudomonas aeruginosa, were tested under mammalian serum. P. aeruginosa results were obtained from testing in DPBS. The results are presented as mean of tests in triplicate with error-bars depicting the 95% confidence interval of the mean.
Antimicrobial Studies. The phosphate buffers used for antimicrobial assays were supplemented with non-nitrogenous energy source, 0.1% (w/v) glucose. […]
Antimicrobial assays in different phosphate buffers and serum were conducted by adapting, with necessary modifications a fast high-throughput method based on Virtual Colony Count technique and later modified by incorporating the use of resazurin. At first serial dilution of a microbial strain in respective buffer was poured in the wells of 96 well polypropylene microplate and was then added with same volume of 2× MHB II supplemented with 80 μg/mL resazurin and incubated at 35° C. in a Gemini EM Microplate Reader (Molecular Devices) overnight with intermittent shaking. […]

[3] = test system: H-358 lung epithelial cancer cells; assay: Cytotoxicity (Alamar blue); assay type: cell-based, human; settings: ~6 hours, 10% fetal bovine serum
Method: FIG. 12 is a graph showing comparison of toxicities against Lung Primary Epithelial cells and Lung Cancerous Epithelial Cells, derived from H358 cell-line. Non-linear regression analysis of six-hour cytotoxicity data was performed to identify the concentration to achieve 50% lethality (LD50) for each toxic peptide. Each peptide was tested in triplicate.
Cytotoxicity. Cells were seeded in complete growth medium (Minimal Essential Medium, MEMα, supplemented with 10% Fetal Bovine Serum) into a culture-treated 96-well plate at a density of 25000 cells per well. After 24 hours, culture media was aspirated and replaced with media containing the selected peptide. No-serum experiments were conducted in Opti-MEM I reduced serum media (ThermoFisher, 31985062) and 10% serum experiments were performed in complete growth medium. In all cases, DBPS was used as a vehicle only control and buffer to serially dilute the peptides. After exposure to the peptides or vehicle-alone for the defined period, Alamar blue dye (resazurin) was added directly to the media and allowed to incubate for two hours. Following incubation, A570/A600 measurements were made to calculate reduction of resazurin dye to resorufin. A ratio of reduction in treated versus untreated cells was calculated in order to determine overall cell viability. The human cells were always maintained in a 37° C. incubator under 5% CO2. […]

Sequence: RRWKRFFKRWKGGVIGVTFPF (SEQ ID NO: 50) [ATRA1-R3W2-HYD, ATRA1-R3W2 with hydrophobic tail of NA-CATH joined by -GG-]
- antimicrobial effectiveness, in words [1]: effective in mammalian serum
- antimicrobial effectiveness, in words (Pseudomonas aeruginosa; DPBS): good bactericidal properties
- antimicrobial effectiveness, in words (Pseudomonas aeruginosa; mammalian serum): did not demonstrate antimicrobial effectiveness
- antimicrobial effectiveness, in words [2]: effective in mammalian serum
- antimicrobial effectiveness, in words (ESKAPE pathogens): highly effective, though in lower degree than PMB
- LD50 [3]: ~24.5 µM
